What was measured:
β2AR-Gs complex = target: T1, β2AR-Gs complex (Homo sapiens, UniProt P07550); test: Negative stain EM analysis of β2AR-Gs complex; conditions: complex purified by VEG-3
T1 construct: made in house
Protocol: A β2AR-Gs protein complex was prepared for electron microscopy using a conventional negative staining protocol, and imaged at room temperature using a Tecnai T12 electron microscope operated at 120 kV according to a low-dose procedure. Images recorded at a magnification of 71,138× and a defocus value of approximately −1.1 urn on a Gatan US4000 CCD camera. All images were binned (2×2 pixels) to obtain a pixel size of 4.16 Å at a specimen level. Particles were manually […] using e2boxer (part of the EMAN2 software suite). 2D reference-free alignment and classification of particle projections were performed using ISAC. 23,035 projections of β2AR-Gs were subjected to ISAC producing 19 classes consistent in two-way matching and 5401 particle projections.

UapA = UapA (Emericella nidulans, UniProt Q07307, G411V); test: UapA thermal stability, CPM assay; design: made in house; host or cells: Saccharomyces cerevisiae FGY217 membranes; conditions: CMC+0.2 wt %, 40° C. for 120 minutes
Protocol: UapAG411VΔ1-11 (hereinafter, referred to as “UapA”) was expressed in a Saccharomyces cerevisiae FGY217 strain by GFP fusion, and isolated into a sample buffer (20 mM Tris (pH 7.5), 150 mM NaCl, 0.03% DDM, 1 mM xanthine), which was performed according to the method disclosed in the paper written by J. Leung et al. (Mol. Menthr. Biol. 2013, 30, 32-42). The protein was concentrated to be approximately 10 mg/ml using a 100 kDa molecular weight cutoff filter (Millipore). The protein was diluted 1:150 with a buffer containing DDM, VEG (VEG-1, VEG-2, VEG-3, VEG-4 or VEG-5) or LMNG at CMC+0.2 wt % in Greiner 96. CPM dye (Invitrogen) stored in DMSO (Sigma) was diluted with a dye buffer (20 mM Tris (pH 7.5), 150 mM NaCl, 0.03% DDM, 5 mM EDTA), and 3 μL of the diluted dye was added to an individual protein sample. The reaction mixture was treated at a constant temperature of 40° C. for 120 minutes. A fluorescence emission intensity was monitored using a microplate spectrofluorometer set to excitation and emission wavelengths of 387 and 463 nm, respectively. The maximum fluorescence value was used to calculate the percentage of a protein folded during incubation. The relative amount of the folded protein was plotted over time using GraphPad Prism.

β2AR = target: T2, β2AR (Homo sapiens, UniProt P07550); test: β2AR stability, [3H]-dihydroalprenolol (DHA) ligand binding; conditions: CMC+0.2 wt %, 10 days at room temperature
T2 construct: made in house; host or cells: Sf9 insect cells, baculovirus
Protocol: A receptor was expressed in Sf9 insect cells infected with Baculovirus and solubilized in 1% DDM. The DDM-solubilized receptor was purified by alprenolol-sepharose in the presence of 0.01% cholesteryl succinate (CHS). β2AR purified by DDM was diluted with a buffer containing DDM or VEGs (VEG-1, VEG-2, VEG-3 and VEG-5) to reach the final concentration of CMC+0.2 wt %. β2AR solubilized in each compound was stored for 10 days at room temperature, and the ligand binding ability of the receptor was measured at regular intervals by incubating the receptor with 10 nM radioactive [^3H]-dihydroalprenolol (DHA) for 30 minutes at room temperature. The mixture was loaded into a G-50 column, and a supernatant was collected using a certain amount of binding buffer (supplemented with […] pH 7.5, 100 mM NaCl, 0.5 mg/ml BSA). In addition, a 15 ml scintillation fluid was added. Receptor-binding [^3H]-DHA was measured using a scintillation counter (Beckman).

[1] = Critical micelle concentration by hydrophobic fluorescence staining with diphenylhexatriene (DPH); format: physicochemical; conditions: aqueous solution
Protocol: A method of measuring CMC is not particularly limited, and may be a method widely known in the art, for example, fluorescent staining using diphenylhex riene (DPH).
To identify the properties of VEGs synthesized according to the synthetic methods of Preparation Examples 1 to […] molecular weights (M.W.) and critical micellar concentrations (CMCs) of VEGs, and the hydrodynamic radii (Rh) of formed micelles were measured.
Specifically, the CMCs were measured using hydrophobic fluorescence staining and diphenylhexatriene (DPH), and the hydrodynamic radii (Rh) of the micelles formed by each formulation were measured by dynamic light scattering (DLS).

In the case of `Cc1c(C)c2c(c(C)c1OCC(=O)NC(CO[C@@H]1OC(CO)[C@@H](O[C@H]3OC(CO)[C@@H](O)[C@H](O)C3O)[C@H](O)C1O)CO[C@@H]1OC(CO)[C@@H](O[C@H]3OC(CO)[C@@H](O)[C@H](O)C3O)[C@H](O)C1O)CCC(C)(CCCC(C)CCCC(C)CCCC(C)C)O2` (some centres unmarked) [VEG-3], the “Homogeneity of β2AR-Gs complex particles (negative stain EM)” value (β2AR-Gs complex) is reported as “highly homogeneous”, the “Ability to maintain UapA in a structurally stable state (CPM assay)” value (UapA) is reported as “excellent ability to maintain UapA in a structurally stable state” and the “Long-term β2AR activity ([3H]-DHA binding)” value (β2AR) is reported as “consistently maintained during incubation for 10 days”. The “CMC” value [1] was roughly 0.002 mM and the “CMC (wt %)” value [1] was roughly 0.0002 wt %.
